Assay results taken from ChEMBL document CHEMBL4616640, “Discovery of novel pyrrole derivatives as potent agonists for the niacin receptor GPR109A” (Bioorg Med Chem Lett, 2020).

Test: AUC (0 to 7 hrs) in rat at 10 mg/kg, po
Assay type: ADME, organism-based
Design: dose 10 mg/kg, time < 7 hr, route oral
Conditions: in vivo

SMILES: CCCCn1cc(NC(=O)CCc2nc(-c3ccc(O)cn3)no2)c(C(=O)O)c1
- AUC(0-t) at 7 h: 630 ng·h/mL
